# In patent EP4781984A1 (Beyang Therapeutics Co., Ltd., priority 2023, dated 2025):
# Legend:
# [1] = Thermodynamic solubility test; format: physicochemical; conditions: buffer solution, aqueous buffer, thermodynamic from solid; thermodynamic solubility, room temperature, 8 hours shaking; buffers pH 2.0, 6.5, 7.4 used, pH of the tabulated value not given
# How it was run: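 Samples sonicated 10 min, shaken 8 h at room temperature, re-sonicated and centrifuged at 13000 rpm for 15 min. Supernatant recentrifuged and analysed by LC-MS, with concentrations quantified against a 3–5 point calibration curve.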
# VEGFR3 = target: T1, VEGFR3 (Homo sapiens, UniProt P35916); assay: Kinase inhibitory activity, Mobility Shift Assay (VEGFR3); format: biochemical
# T1 construct: purchased Invitrogen PV4129
# T1 sequence (P35916 25-1363): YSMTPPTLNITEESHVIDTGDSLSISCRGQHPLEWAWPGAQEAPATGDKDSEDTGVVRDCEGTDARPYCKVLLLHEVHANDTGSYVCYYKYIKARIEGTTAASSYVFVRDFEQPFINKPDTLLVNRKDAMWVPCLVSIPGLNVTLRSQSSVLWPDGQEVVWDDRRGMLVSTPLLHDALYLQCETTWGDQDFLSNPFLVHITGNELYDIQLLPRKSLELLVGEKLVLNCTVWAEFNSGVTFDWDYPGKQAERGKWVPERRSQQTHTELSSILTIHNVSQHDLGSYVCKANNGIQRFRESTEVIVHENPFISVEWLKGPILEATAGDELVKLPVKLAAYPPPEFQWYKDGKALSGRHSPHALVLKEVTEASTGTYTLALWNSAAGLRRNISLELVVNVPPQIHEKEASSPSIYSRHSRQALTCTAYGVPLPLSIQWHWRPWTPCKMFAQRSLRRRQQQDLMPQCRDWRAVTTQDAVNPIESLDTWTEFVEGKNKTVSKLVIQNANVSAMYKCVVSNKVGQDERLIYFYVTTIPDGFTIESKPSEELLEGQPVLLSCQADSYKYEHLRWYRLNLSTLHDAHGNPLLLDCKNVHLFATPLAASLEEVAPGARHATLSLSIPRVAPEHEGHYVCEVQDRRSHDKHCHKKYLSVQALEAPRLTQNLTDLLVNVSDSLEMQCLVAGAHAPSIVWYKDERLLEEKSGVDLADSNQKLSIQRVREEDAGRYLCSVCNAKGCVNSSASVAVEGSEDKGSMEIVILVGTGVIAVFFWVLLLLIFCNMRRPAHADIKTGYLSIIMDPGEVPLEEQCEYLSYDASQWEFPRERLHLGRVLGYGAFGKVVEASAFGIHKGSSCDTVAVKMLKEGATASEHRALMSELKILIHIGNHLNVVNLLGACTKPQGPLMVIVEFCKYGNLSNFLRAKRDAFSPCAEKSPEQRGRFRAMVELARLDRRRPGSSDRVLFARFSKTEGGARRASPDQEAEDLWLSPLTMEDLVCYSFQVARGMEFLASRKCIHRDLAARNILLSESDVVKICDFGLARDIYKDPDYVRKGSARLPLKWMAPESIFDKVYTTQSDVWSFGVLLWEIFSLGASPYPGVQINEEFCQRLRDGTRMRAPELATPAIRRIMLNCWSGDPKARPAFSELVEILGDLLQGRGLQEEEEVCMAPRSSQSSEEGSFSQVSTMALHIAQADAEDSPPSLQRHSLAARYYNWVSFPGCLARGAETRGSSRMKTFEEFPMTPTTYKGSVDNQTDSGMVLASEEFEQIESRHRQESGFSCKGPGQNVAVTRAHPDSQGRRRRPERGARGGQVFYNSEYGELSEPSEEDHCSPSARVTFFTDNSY
# Method: (§1) Assay for Inhibitory Activity of Compounds Against VEGFR and EGFR Kinases
# (§2) This assay directly monitors the inhibitory activity of compounds on kinase phosphorylation by measuring non-phosphorylated and phosphorylated substrates in the kinase reaction using Mobility Shift Assays/IMAP™ analysis. Table 2. Reagents and Instruments
# (§3) Kinase and DTT were added to 1X kinase buffer to form a 2.5X kinase solution; 10 µL of the 2.5X kinase solution was transferred to a 384-well reaction plate, and 1X kinase buffer was added to the negative control wells. The plate was incubated at room temperature for 10 minutes; FAM-labeled peptide, MgCl2, ATP, and other reagents were added to 1X kinase buffer to form a 2.5X substrate solution; 10 µL of the above 2.5X substrate solution was transferred to the 384-well reaction plate; the plate was incubated at 28°C for varying times, and then 25 µL of stop solution was added to the 384-well reaction plate to terminate the reaction. Conversion rate data were read on a CaliperEZ Reader II. […] IC50 values were fitted using XLFit excel add-in version 5.4.0.8. Y = Bottom + (Top−Bottom)/(1 + […]) [formula]
# (§4) X is the log value of compound concentration, Y is the inhibition rate (% inhibition).
# VEGFR1 = target: T2, VEGFR1 (Homo sapiens, UniProt P17948); assay: Kinase inhibitory activity, Mobility Shift Assay (VEGFR1); format: biochemical
# T2 construct: purchased Invitrogen PR6731B
# T2 sequence (P17948 27-1338): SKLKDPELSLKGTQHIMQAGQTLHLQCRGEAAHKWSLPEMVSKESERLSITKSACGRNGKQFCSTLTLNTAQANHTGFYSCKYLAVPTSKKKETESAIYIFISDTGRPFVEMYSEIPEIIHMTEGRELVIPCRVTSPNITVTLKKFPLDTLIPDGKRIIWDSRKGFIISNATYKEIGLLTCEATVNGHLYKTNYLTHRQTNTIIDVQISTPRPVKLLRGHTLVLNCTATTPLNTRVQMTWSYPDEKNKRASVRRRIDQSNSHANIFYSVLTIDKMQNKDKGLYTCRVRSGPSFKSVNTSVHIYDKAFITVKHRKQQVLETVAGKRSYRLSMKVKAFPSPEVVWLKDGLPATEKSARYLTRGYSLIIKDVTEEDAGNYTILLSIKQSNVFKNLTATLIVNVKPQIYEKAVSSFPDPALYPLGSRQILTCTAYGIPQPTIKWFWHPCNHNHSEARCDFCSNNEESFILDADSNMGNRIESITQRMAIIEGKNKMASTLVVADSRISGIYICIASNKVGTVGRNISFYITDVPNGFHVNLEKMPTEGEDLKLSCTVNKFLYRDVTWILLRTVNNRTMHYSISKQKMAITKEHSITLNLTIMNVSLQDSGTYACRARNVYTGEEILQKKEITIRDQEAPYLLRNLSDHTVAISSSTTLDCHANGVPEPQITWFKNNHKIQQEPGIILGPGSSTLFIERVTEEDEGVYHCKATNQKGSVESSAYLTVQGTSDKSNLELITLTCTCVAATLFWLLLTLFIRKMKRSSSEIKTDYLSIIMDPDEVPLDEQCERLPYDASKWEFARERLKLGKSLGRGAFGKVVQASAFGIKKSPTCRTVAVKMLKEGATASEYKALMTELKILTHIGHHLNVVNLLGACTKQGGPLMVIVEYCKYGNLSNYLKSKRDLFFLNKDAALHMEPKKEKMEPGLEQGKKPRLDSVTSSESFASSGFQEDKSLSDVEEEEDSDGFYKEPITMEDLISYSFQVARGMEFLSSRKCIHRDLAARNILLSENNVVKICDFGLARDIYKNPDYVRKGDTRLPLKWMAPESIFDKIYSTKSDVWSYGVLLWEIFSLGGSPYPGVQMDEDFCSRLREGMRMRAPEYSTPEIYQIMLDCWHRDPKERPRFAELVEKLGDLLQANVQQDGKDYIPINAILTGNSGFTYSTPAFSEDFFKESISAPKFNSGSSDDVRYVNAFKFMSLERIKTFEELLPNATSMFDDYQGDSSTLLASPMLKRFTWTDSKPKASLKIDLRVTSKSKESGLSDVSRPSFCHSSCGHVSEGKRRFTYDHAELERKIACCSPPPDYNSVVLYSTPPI
# Method: as §1, §2, §3, §4
# melanin = assay: Compound binding to melanin; format: in vitro ADME; conditions: cuttlefish (Sepia officinalis), melanin suspension (1 mg/mL), percentage of free drug (not bound to melanin), 2 µM compound, melanin 1 mg/mL in PBS pH 7.4, 37°C
# How it was run: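 Compound at 2 µM final incubated with 1 mg/mL Sepia melanin in PBS pH 7.4, 37°C, 2 hours with shaking; blank in PBS with 0.1% BSA. Supernatant concentration by LC-MS/MS. Fb = 100 − (Ctest/Ccontrol) × 100%.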
# VEGFR2 = target: T3, VEGFR2 (Homo sapiens, UniProt P35968); assay: Kinase inhibitory activity, Mobility Shift Assay (VEGFR2); format: biochemical
# T3 construct: purchased Carna 08-191
# T3 sequence (P35968 20-1356): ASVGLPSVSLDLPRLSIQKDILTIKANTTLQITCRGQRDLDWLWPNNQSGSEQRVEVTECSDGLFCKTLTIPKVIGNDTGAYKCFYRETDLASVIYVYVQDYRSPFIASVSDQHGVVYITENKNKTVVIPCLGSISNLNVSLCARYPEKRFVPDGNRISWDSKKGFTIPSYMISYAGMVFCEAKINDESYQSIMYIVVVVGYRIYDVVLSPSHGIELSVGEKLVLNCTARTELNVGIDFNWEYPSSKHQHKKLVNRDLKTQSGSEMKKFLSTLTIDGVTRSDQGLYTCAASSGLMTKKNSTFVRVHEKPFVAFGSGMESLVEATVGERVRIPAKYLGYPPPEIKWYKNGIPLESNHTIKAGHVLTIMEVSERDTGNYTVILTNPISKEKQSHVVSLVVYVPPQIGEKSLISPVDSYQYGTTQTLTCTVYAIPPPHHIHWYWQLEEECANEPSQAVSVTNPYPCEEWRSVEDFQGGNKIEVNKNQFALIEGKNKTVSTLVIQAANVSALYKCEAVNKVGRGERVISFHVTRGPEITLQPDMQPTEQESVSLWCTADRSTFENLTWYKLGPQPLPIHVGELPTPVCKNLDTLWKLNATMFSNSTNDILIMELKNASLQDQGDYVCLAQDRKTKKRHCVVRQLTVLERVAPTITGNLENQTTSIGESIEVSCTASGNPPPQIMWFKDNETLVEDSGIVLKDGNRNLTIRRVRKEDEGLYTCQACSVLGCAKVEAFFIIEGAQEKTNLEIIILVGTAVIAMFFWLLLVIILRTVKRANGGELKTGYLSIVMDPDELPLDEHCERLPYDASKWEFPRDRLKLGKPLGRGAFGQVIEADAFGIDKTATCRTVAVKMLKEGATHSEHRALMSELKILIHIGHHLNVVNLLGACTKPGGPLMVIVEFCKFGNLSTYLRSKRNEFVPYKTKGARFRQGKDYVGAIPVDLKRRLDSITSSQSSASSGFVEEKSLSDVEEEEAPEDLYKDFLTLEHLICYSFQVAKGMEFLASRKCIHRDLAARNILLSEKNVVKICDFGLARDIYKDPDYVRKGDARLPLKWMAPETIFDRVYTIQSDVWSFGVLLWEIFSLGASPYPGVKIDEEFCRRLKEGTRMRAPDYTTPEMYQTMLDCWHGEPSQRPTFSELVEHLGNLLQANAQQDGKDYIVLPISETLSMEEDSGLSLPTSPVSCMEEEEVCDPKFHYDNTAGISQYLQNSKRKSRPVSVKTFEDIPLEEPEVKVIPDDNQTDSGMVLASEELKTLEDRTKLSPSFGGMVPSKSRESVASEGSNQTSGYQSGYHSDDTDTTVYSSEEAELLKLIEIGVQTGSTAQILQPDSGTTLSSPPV
# Method: as §1, §2, §3, §4
# [2] = Plasma and ocular tissue distribution after single ocular administration of formulations in Dutch Belted rabbits (Example 9); format: in vivo; conditions: for concentration at 0.5 h: male, rabbit, plasma, other: ocular administration (eye drops)
# Method: Male Dutch Belted rabbits used in this experiment were purchased from Pizhou Dongfang Breeding Co., Ltd., with animal weights ranging from 1.5 to 2.5 kg. All procedures performed on experimental animals in this experiment complied with the relevant SOP requirements of Suzhou Sunstone New Drug Development Co., Ltd. and were approved by the Institutional Animal Care and Use Committee (IACUC) of Suzhou Sunstone New Drug Development Co., Ltd. Formulation Preparation: Weigh approximately 1 mg of the test substance into a glass vial. After necessary calculation/conversion, sequentially add the eye drop formulation vehicle (Tris-HCl buffer (0.05 mol/L): Tween 80: 0.5% CMC-Na = 49: 1:50). Vortex and sonicate after adding Tris-HCl buffer and Tween 80, then add 0.5% CMC-Na, vortex, and sonicate or cut if necessary, to prepare a 1 mg/mL dosing formulation. All prepared dosing formulations were freshly prepared on the day of administration, sampled, and the actual concentration of the dosing formulation was determined.
# On the day of the experiment, animals were administered 1 mg/mL (0.05 mg/eye, 50 µL/eye). There were 2 animals per group. Animals were euthanized at 0.5, 4, or 8 hours after administration, respectively, by an appropriate method, and blood samples and ocular tissues (i.e., cornea, retina, choroid, and sclera) were collected. The collected 1 mL of whole blood was placed in an EDTA-K2 anticoagulant tube, inverted several times to mix thoroughly, and centrifuged (1500-1600 g) for 10 minutes within 30 minutes to separate plasma. The obtained plasma samples were stored at -80°C for bioanalysis. After collection, ocular tissues were washed with pre-cooled saline, dried, and stored at -80°C or under equivalent conditions for subsequent tissue homogenization and sample analysis. For ocular tissues requiring homogenization, the entire or a portion of the tissue was selected, accurately weighed, and homogenized at a 1:10 ratio with 20% methanol-water. The tissue homogenate was stored at -80°C for sample analysis. The concentrations of each analyte in rabbit ocular tissues and plasma obtained in this experiment were determined using an LC-MS/MS analytical method. The matrices were Dutch rabbit plasma (EDTA-K2 anticoagulated) and rabbit ocular tissue (1:10, 20% methanol-water). Left and right eyes were tested separately. BLOQ (Below the Limit of Quantification) is the lowest analyte concentration that can be quantified with acceptable precision and accuracy. Compounds were diluted 1:10 with homogenate before analysis, and if the concentration after dilution was less than 1 ng/mL, it was marked as BLOQ.
# Example 9: Detection of Plasma and Ocular Tissue Distribution after Single Ocular Administration of Formulations in Dutch Belted Rabbits
# The experimental procedure refers to Example 6. Animals were administered eye drops at 5 mg/mL (0.25 mg/eye, 50 µL/eye) or 1 mg/mL (0.05 mg/eye, 50 µL/eye), respectively. Table 22 Experimental Results
# Except for compound I-32, the other components of Suspension A and Solution B are respectively: • Suspension A: Tris(hydroxymethyl)aminomethane-Hydrochloric Acid Buffer (0.05M): Tween 80: 0.5% (w/v) Sodium Carboxymethylcellulose aqueous solution = 49:1:50 (v/v/v); • Solution B: Polyethylene Glycol 400: 50mM Tris(hydroxymethyl)aminomethane-Hydrochloric Acid Buffer (containing 10% Hydroxypropyl-β-cyclodextrin, 1% Poloxamer 188, 0.3% Gellan Gum Gelrite, w/v) = 5:95 (v/v).
# [3] = Ophthalmic formulations based on polyethylene glycol series vehicles: composition and state (Example 7); format: physicochemical; conditions: Table 12: 1mg/ml; Polyethylene glycol 400 5, Hydroxypropyl-β-cyclodextrin 10, Tris-HCl buffer (pH 8.3) 10mM, Hydroxypropyl methylcellulose 1, Poloxamer 188 1
# Source text: In the following ophthalmic formulation preparation examples, "solution" refers to a clear, transparent liquid without visible insoluble matter. "Near-clear solution" refers to a liquid that appears close to a solution upon visual observation but may contain a small amount of insoluble particles or have a slightly opaque color. "Suspension" refers to a liquid that is visibly turbid or opaque. "Gel" refers to a completely or partially gel-like solid.
# Example 7: Ophthalmic Formulations Based on Polyethylene Glycol Series Vehicles
# According to the formulation composition shown in the tables below, weigh the compound powder, add it to polyethylene glycol 400, and sonicate until dissolved or nearly dissolved (heat to 50°C if necessary). Add this to a Tris-HCl buffer solution containing hydroxypropyl-β-cyclodextrin, poloxamer 188, and gellan gum (or other viscosity modifier), vortex to mix, and prepare into an eye drop formulation.
# [4] = Solution B, 1 mg/mL (0.05 mg/eye, 50 µL/eye), formulation pH 8.3
# [5] = Suspension A, 1 mg/mL (0.05 mg/eye, 50 µL/eye), formulation pH 8.4
# [6] = Suspension A, 5 mg/mL (0.25 mg/eye, 50 µL/eye), formulation pH 8.4
structure (smiles),measurement,setting,value
"CNC(=O)c1ccccc1Sc1ccc2c(/C=C/c3ccc(OCCN4CCOCC4)cn3)n[nH]c2c1 [Compound I-3, N-methyl-2-((3-((E)-2-(5-(2-(morpholin-4-yl)ethoxy)pyridin-2-yl)ethenyl)-1H-indazol-6-yl)thio)benzamide]",solubility at 8 h,[1],0.5 µg/mL
same,IC50,VEGFR3,≤ 1 nM
same,IC50,VEGFR1,≤ 1 nM
same,"fraction unbound at 2 h, 2 µM",melanin,0.01 to 0.05
CNC(=O)c1ccccc1Sc1ccc2c(/C=C/c3ccc(OCCN4CCN(C)CC4)cn3)n[nH]c2c1 [Compound I-4],IC50,VEGFR2,≤ 1 nM
same,solubility at 8 h,[1],413 µg/mL
same,IC50,VEGFR3,≤ 1 nM
same,IC50,VEGFR1,≤ 1 nM
same,"fraction unbound at 2 h, 2 µM",melanin,> 0.05
CNC(=O)c1ccccc1Sc1ccc2c(/C=C/c3ccc(OCCC4CCN(C)CC4)cn3)n[nH]c2c1 [Compound I-5],IC50,VEGFR2,≤ 1 nM
same,solubility at 8 h,[1],177 µg/mL
same,IC50,VEGFR3,≤ 1 nM
same,IC50,VEGFR1,≤ 1 nM
same,"fraction unbound at 2 h, 2 µM",melanin,0.01 to 0.05
CNC(=O)c1ccccc1Sc1ccc2c(/C=C/c3ccc(OCCN4CCCC4)cn3)n[nH]c2c1 [Compound I-6],solubility at 8 h,[1],226 µg/mL
same,IC50,VEGFR1,≤ 1 nM
same,"fraction unbound at 2 h, 2 µM",melanin,0.01 to 0.05
"CNC(=O)c1ccccc1Sc1ccc2c(/C=C/c3ccc(O)cn3)n[nH]c2c1 [Compound I-10, 2-({3-[(E)-2-(5-hydroxypyridin-2-yl)ethenyl]-1H-indazol-6-yl}thio)-N-methylbenzamide]",IC50,VEGFR3,≤ 1 nM
CNC(=O)c1ccccc1Sc1ccc2c(/C=C/c3ccn(CCN4CCCC4)n3)n[nH]c2c1 [Compound I-13],IC50,VEGFR3,≤ 1 nM
same,"fraction unbound at 2 h, 2 µM",melanin,0.01 to 0.05
CNC(=O)c1ccccc1Sc1ccc2c(C#Cc3cc(OCCN4CCCC4)ccn3)n[nH]c2c1 [Compound I-23],solubility at 8 h,[1],859 µg/mL
same,IC50,VEGFR3,> 100 nM
same,"fraction unbound at 2 h, 2 µM",melanin,0.01 to 0.05
"CNC(=O)c1ccccc1Sc1ccc2c(Nc3ccc(OCCN4CCCC4)cn3)n[nH]c2c1 [Compound I-30, N-methyl-2-((3-((5-(2-(pyrrolidin-1-yl)ethoxy)pyridin-2-yl)amino)-1H-indazol-6-yl)thio)benzamide]",IC50,VEGFR2,> 100 nM
same,IC50,VEGFR3,> 100 nM
same,IC50,VEGFR1,> 100 nM
"CNC(=O)c1ccccc1Sc1ccc2c(/C=C/c3cnn(CCCN4CCCC4)c3)n[nH]c2c1 [Compound I-32, N-methyl-2-((3-((E)-2-(1-(3-(pyrrolidin-1-yl)propyl)-1H-pyrazol-4-yl)ethenyl)-1H-indazol-6-yl)thio)benzamide]",solubility at 8 h,[1],327 µg/mL
same,Choroid AUC,[2]; [4],381 ng·h/g
same,Conjunctiva AUC,[2]; [4],2142 ng·h/g
same,Cornea AUC,[2]; [4],590 ng·h/g
same,Plasma Concentration 0.5h,[2]; [4],BLOQ
same,Retina AUC,[2]; [4],784 ng·h/g
same,Sclera AUC,[2]; [4],998 ng·h/g
same,Choroid AUC,[2]; [5],526 ng·h/g
same,Conjunctiva AUC,[2]; [5],6157 ng·h/g
same,Cornea AUC,[2]; [5],3380 ng·h/g
same,Iris AUC,[2]; [5],162 ng·h/g
same,Retina AUC,[2]; [5],330 ng·h/g
same,Sclera AUC,[2]; [5],2175 ng·h/g
same,Choroid AUC,[2]; [6],1594.5 ng·h/g
same,Conjunctiva AUC,[2]; [6],17380.5 ng·h/g
same,Cornea AUC,[2]; [6],5175 ng·h/g
same,Iris AUC,[2]; [6],549.5 ng·h/g
same,Retina AUC,[2]; [6],613 ng·h/g
same,Sclera AUC,[2]; [6],2439.5 ng·h/g
same,concentration at 0.5 h,[2]; [5],2.4 ng/mL
same,concentration at 0.5 h,[2]; [6],5.6 ng/mL
same,State Description: pH,[3],~8
same,State Description: state,[3],solution
same,"fraction unbound at 2 h, 2 µM",melanin,0.01 to 0.05
"CNC(=O)c1c(F)cccc1Sc1ccc2c(/C=C/c3ccc(OCCN4CCCC4)cn3)n[nH]c2c1 [Compound I-36, 2-fluoro-N-methyl-6-({3-[(E)-2-{5-[2-(pyrrolidin-1-yl)ethoxy]pyridin-2-yl}ethenyl]-1H-indazol-6-yl}sulfanyl)benzamide]",solubility at 8 h,[1],16.2 µg/mL
same,IC50,VEGFR1,> 100 nM
same,"fraction unbound at 2 h, 2 µM",melanin,> 0.05
"CN1CCN(c2ccc(/C=C/c3n[nH]c4cc(Sc5ccccc5C(=O)NC5CC5)ccc34)nc2)CC1 [Compound I-38, N-cyclopropyl-2-({3-[(E)-2-[5-(4-methylpiperazin-1-yl)pyridin-2-yl]ethenyl]-1H-indazol-6-yl}thio)benzamide]",IC50,VEGFR2,≤ 1 nM
same,IC50,VEGFR3,≤ 1 nM
same,IC50,VEGFR1,≤ 1 nM
same,"fraction unbound at 2 h, 2 µM",melanin,0.01 to 0.05
CNC(=O)c1ccccc1Sc1ccc2c(/C=C/c3ccc(OC[C@@H]4CCN(C)C4)cn3)n[nH]c2c1 [Compound I-39],IC50,VEGFR2,≤ 1 nM
same,IC50,VEGFR1,≤ 1 nM
"CN(C)Cc1ccc(/C=C/c2n[nH]c3cc(Sc4ccccc4C(=O)NC4CC4)ccc23)nc1 [Compound I-40, N-cyclopropyl-2-((3-((E)-2-(5-((dimethylamino)methyl)pyridin-2-yl)ethenyl)-1H-indazol-6-yl)thio)benzamide]",IC50,VEGFR1,≤ 1 nM
same,"fraction unbound at 2 h, 2 µM",melanin,0.01 to 0.05
O=C(NC1CC1)c1ccccc1Sc1ccc2c(/C=C/c3cccc(CCCN4CCCC4)n3)n[nH]c2c1 [Compound I-121],IC50,VEGFR2,≤ 1 nM
same,IC50,VEGFR3,≤ 1 nM
